# Assay results reported in the supplement of paper PMC10883282.
# Structures can show the parent of a compound that is named as a salt. ± gives the standard deviation of the averaged measurements.
# System: A204
# Assay: relative viability vs DMSO control (72 h) (fraction); higher = more viable cells
# Procedure, shortened: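 A 5 µM positive control and 0.1% DMSO vehicle ran alongside sarcoma cell lines seeded in 384-well plates to reach 80–90% confluence. Serially diluted compound, 2.5 µl from source plates of 10 mM to 0.0002 mM, was added after 24 h, and the plates were held 72 h at 37 °C, 5% CO2. Relative viability was worked out from ATPLite readings as percent growth averaged over up to triplicate wells. The values were rescaled so that 1 is full and 0 is none.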
SMILES,relative viability (2 pM),relative viability (5 pM),relative viability (15 pM),relative viability (50 pM),relative viability (0.00014 µM),relative viability (0.00041 µM),relative viability (0.0012 µM),relative viability (0.0037 µM),relative viability (0.011 µM),relative viability (200 fM),relative viability (600 fM),relative viability (0.00017 µM),relative viability (0.00051 µM),relative viability (0.00152 µM),relative viability (0.00457 µM),relative viability (0.01372 µM),relative viability (0.04115 µM),relative viability (0.1235 µM),relative viability (0.3704 µM),relative viability (1.111 µM),relative viability (3.333 µM),relative viability (10 µM)
COc1cc2c(cc1O)CCN[C@]21CS[C@@H]2c3c(OC(C)=O)c(C)c4c(c3[C@H](COC1=O)N1[C@@H]2[C@H]2c3c(cc(C)c(OC)c3O)C[C@@H]([C@@H]1O)N2C)OCO4 [Trabectedin],1.08 ± 0.026,1.06 ± 0.03,1.05 ± 0.056,0.979 ± 0.02,0.84 ± 0.031,0.399 ± 0.17,0.156 ± 0.13,0.215 ± 0.0065,0.202 ± 0.014,1.07 ± 0.03,1.1 ± 0.043,,,,,,,,,,,
CN1CCN(c2ccc3nc(-c4c(N)c5c(F)cccc5[nH]c4=O)[nH]c3c2)CC1 [Dovitinib],,,,,,,,,,,,1.1 ± 0.031,1.06 ± 0.031,1.06 ± 0.064,1.07 ± 0.046,1.01 ± 0.052,1.03 ± 0.056,0.907 ± 0.1,0.771 ± 0.029,0.355 ± 0.054,0.0814 ± 0.011,0.0143 ± 0.0029
C[C@@H]1COCCN1c1cc(-c2ccnn2C)c2ccnc(-c3ccn[nH]3)c2n1,,,,,,,,,,,,1.07 ± 0.068,1.05 ± 0.039,1.07 ± 0.067,1.08 ± 0.061,1.03 ± 0.037,0.903 ± 0.019,0.668 ± 0.05,0.431 ± 0.04,0.291 ± 0.015,0.231 ± 0.0066,0.222 ± 0.0062
Cn1cc(-c2cc3c(N4CCN(c5ncc([C@@](C)(N)c6ccc(F)cc6)cn5)CC4)ncnn3c2)cn1 [Avapritinib],,,,,,,,,,,,1.02 ± 0.02,1.06 ± 0.024,1.05 ± 0.023,1.05 ± 0.063,1.02 ± 0.056,0.959 ± 0.061,0.77 ± 0.019,0.507 ± 0.013,0.359 ± 0.024,0.282 ± 0.017,0.212 ± 0.012
C[C@]1(O)C[C@@H](c2nc(-c3ccc4ccc(-c5ccccc5)nc4c3)c3c(N)nccn32)C1 [Linsitinib],,,,,,,,,,,,1.08 ± 0.049,1.05 ± 0.058,1.05 ± 0.021,1.06 ± 0.05,1.03 ± 0.017,1.03 ± 0.048,1.04 ± 0.087,0.99 ± 0.077,0.907 ± 0.063,0.755 ± 0.097,0.476 ± 0.017
Cc1nc(NC(=O)N2CCC[C@H]2C(N)=O)sc1-c1ccnc(C(C)(C)C(F)(F)F)c1 [Alpelisib],,,,,,,,,,,,0.942 ± 0.046,0.988 ± 0.037,1 ± 0.02,1.02 ± 0.06,0.983 ± 0.019,0.925 ± 0.035,0.895 ± 0.038,0.7675 ± 0.0064,0.651 ± 0.027,0.557 ± 0.052,0.414 ± 0.03
COc1cccc2c1C(=O)c1c(O)c3c(c(O)c1C2=O)C[C@@](O)(C(=O)CO)C[C@@H]3O[C@H]1C[C@H](N)[C@H](O)[C@H](C)O1 [Doxorubicin Hydrochloride],,,,,,,,,,,,1.06 ± 0.015,1.07 ± 0.06,1.04 ± 0.006,0.941 ± 0.031,0.779 ± 0.1,0.56 ± 0.068,0.314 ± 0.032,0.137 ± 0.024,0.128 ± 0.0019,0.123 ± 0.014,0.118 ± 0.019
CNC(=O)c1ccc(-c2cnc3ncc(Cc4ccc5ncccc5c4)n3n2)cc1F [Capmatinib],,,,,,,,,,,,1.1 ± 0.029,1.07 ± 0.019,1.08 ± 0.04,1.08 ± 0.024,1.07 ± 0.038,1.06 ± 0.015,1.1 ± 0.02,1.07 ± 0.054,1.04 ± 0.027,0.984 ± 0.054,0.787 ± 0.035
Cc1ccc(NC(=O)c2ccc(CN3CCN(C)CC3)cc2)cc1Nc1nc(-c2cccnc2)cs1 [Masitinib],,,,,,,,,,,,1.01 ± 0.019,1.03 ± 0.039,1.06 ± 0.013,1.05 ± 0.065,1.09 ± 0.03,0.976 ± 0.033,0.772 ± 0.012,0.472 ± 0.011,0.303 ± 0.015,0.194 ± 0.015,0.0391 ± 0.0062
